# In patent publication US20100204203A1, “Chemical Compounds 637: Pyridopyrimidinediones as PDE4 Inhibitors” (priority 2007, published 2010):
# Structures can show the parent of a compound that is named as a salt.
# Target: recombinant Human Phosphodiesterase B2 (PDE4B2) (Homo sapiens, UniProt Q07343)
# Test: Human Phosphodiesterase B2 Radiometric Assay (yttrium silicate SPA beads, [3H]cyclic AMP)
# Type: biochemical
# Details: recombinant human PDE4B2, radiometric SPA assay, 8 nM [3H]cyclic AMP; read-out: PDE4B2 pIC50 (converted)
# Protocol: Human Phosphodiesterase B2 Radiometric Assay
# The assay uses recombinant Human Phosphodiesterase B2 (PDE4B2) produced in house (PrAZL0163), stored at −20° C. This assay is based on the observation that 5′AMP, the product of the reaction catalysed by PDE4, binds preferentially to yttrium silicate SPA beads (Amersham Biosciences, UK) compared to the substrate, cAMP. Compounds at the appropriate concentration were preincubated at 30 C for 30 min with an assay buffer containing 50 mM HEPES (pH 7.5), 8.3 mM MgCl2, 1.7 mM EGTA, 0.01% (w/v) Brij° 35 and 0.1 mg/mL recombinant PDE4B2. The reaction was started by the addition of [3H]cyclic AMP to give a final concentration of 8 nM, and was stopped 20 minutes after the addition of the substrate by the addition of yttrium silicate SPA beads containing 18 mM Zn SO4. Bound [3H]cyclic AMP was measured using a Topcount NXT (Packard Bioscience, UK). pIC50 values (presented in Table 15) were determined using Xlfit3 curve fitting, using model 205.
# Sequence of recombinant Human Phosphodiesterase B2 (PDE4B2) (Q07343 1-564 isoform Q07343-2): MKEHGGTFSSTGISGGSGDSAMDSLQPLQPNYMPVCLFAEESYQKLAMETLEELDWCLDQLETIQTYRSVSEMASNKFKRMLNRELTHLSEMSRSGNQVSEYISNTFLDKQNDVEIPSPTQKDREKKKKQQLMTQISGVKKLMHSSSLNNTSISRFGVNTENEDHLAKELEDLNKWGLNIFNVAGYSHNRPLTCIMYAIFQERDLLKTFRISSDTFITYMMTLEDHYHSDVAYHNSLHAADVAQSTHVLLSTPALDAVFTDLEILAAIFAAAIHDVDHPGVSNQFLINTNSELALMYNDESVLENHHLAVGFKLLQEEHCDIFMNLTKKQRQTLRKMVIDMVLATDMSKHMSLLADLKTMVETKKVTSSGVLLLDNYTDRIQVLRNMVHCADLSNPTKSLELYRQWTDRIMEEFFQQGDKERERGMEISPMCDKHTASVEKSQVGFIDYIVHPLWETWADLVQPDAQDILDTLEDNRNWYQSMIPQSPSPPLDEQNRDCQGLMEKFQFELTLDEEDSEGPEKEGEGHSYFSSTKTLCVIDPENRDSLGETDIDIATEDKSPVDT
row,Structure (SMILES),IC50
1,"CC(C)N1CCN(Cc2ccc(-c3cccc(-n4c(=O)n([C@H]5CC[C@@H](NC(=O)c6ccsc6)CC5)c(=O)c5cc(F)cnc54)c3)cc2)CC1 [Example 245, N-{cis-4-[6-fluoro-1-{4′-[(4-isopropylpiperazin-1-yl)methyl]biphenyl-3-yl}-2,4-dioxo-1,4-di-hydropyrido[2,3-d]pyrimidin-3(2H)-yl]cyclohexyl}thiophene-3-carboxamide]",0.02 nM
2,"O=C(N[C@H]1CC[C@@H](n2c(=O)c3cc(F)cnc3n(-c3cccc(-c4ccc(F)cc4OCCN4CCNCC4)c3)c2=O)CC1)c1cn2cc(F)ccc2n1 [Example 85, 6-fluoro-N-{cis-4-[6-fluoro-1-[4′-fluoro-2′-(2-piperazin-1-ylethoxy)biphenyl-3-yl]-2,4-dioxo-1,4-dihydropyrido[2,3-d]pyrimidin-3(2H)-yl]cyclohexyl}imidazo[1,2-a]pyridine-2-carboxamide]",0.316 nM
3,"Cc1cc(C(=O)N[C@H]2CC[C@@H](n3c(=O)c4cc(F)cnc4n(-c4cccc(-c5ccc(CN6CCC(N7CCCCC7)CC6)cc5)c4)c3=O)CC2)nn1C [Example 289, N-{cis-4-[1-[4′-(1,4′-bipiperidin-1′-ylmethyl)biphenyl-3-yl]-6-fluoro-2,4-dioxo-1,4-dihydropyrido[2,3-d]pyrimidin-3(2H)-yl]cyclohexyl}-1,5-dimethyl-1H-pyrazole-3-carboxamide]",0.0126 nM
4,"CN(C)Cc1cc(O)ccc1-c1cccc(-n2c(=O)n([C@H]3CC[C@@H](NC(=O)c4cn5cc(F)ccc5n4)CC3)c(=O)c3cc(F)cnc32)c1 [Example 104, N-{cis-4-[1-{2′-[(dimethylamino)methyl]-4′-hydroxybiphenyl-3-yl}-6-fluoro-2,4-dioxo-1,4-dihydropyrido[2,3-d]pyrimidin-3(2H)-yl]cyclohexyl}-6-fluoroimidazo[1,2-a]pyridine-2-carboxamide]",0.00316 nM
5,"CC(C)c1ccc(CN[C@H]2CC[C@@H](n3c(=O)c4cc(F)cnc4n(-c4cccc(-c5ccc(O)cc5CN5CCOCC5)c4)c3=O)CC2)cc1 [Example 283, 6-fluoro-1-[4′-hydroxy-2′-(morpholin-4-ylmethyl)biphenyl-3-yl]-3-{cis-4-[(4-isopropylbenzyl)amino]cyclohexyl} pyrido[2,3-d]pyrimidine-2,4(1H,3H)-dione]",1.26 nM
6,"CN1CCN(CCc2ccc(-c3cccc(-n4c(=O)n([C@H]5CC[C@@H](NC(=O)c6cn7cc(F)ccc7n6)CC5)c(=O)c5cc(F)cnc54)c3)cc2)CC1 [Example 100, 6-fluoro-N-{cis-4-[6-fluoro-1-{4′-[2-(4-methylpiperazin-1-yl)ethyl]biphenyl-3-yl}-2,4-dioxo-1,4-dihydropyrido[2,3-d]pyrimidin-3(2H)-yl]cyclohexyl}imidazo[1,2-a]pyridine-2-carboxamide]",0.00794 nM
7,"O=C(N[C@H]1CC[C@@H](n2c(=O)c3cc(F)cnc3n(-c3cccc(-c4ccc(O)cc4CN4CCNCC4)c3)c2=O)CC1)c1cn2cc(F)ccc2n1 [Example 72, 6-fluoro-N-{cis-4-[6-fluoro-1-[4′-hydroxy-2′-(piperazin-1-ylmethyl)biphenyl-3-yl]-2,4-dioxo-1,4-dihydropyrido[2,3-d]pyrimidin-3(2H)-yl]cyclohexyl}imidazo[1,2-a]pyridine-2-carboxamide trifluoroacetate salt]",0.0501 nM
8,"O=c1c2cc(F)cnc2n(-c2cccc(-c3ccc(O)cc3CN3CCCOCC3)c2)c(=O)n1[C@H]1CC[C@@H](NCc2ncc3ccccn23)CC1 [Example 371, 6-fluoro-1-[4′-hydroxy-2′-(1,4-oxazepan-4-ylmethyl)biphenyl-3-yl]-3-{cis-4-[(imidazo[1,5-a]pyridin-3-ylmethyl)amino]cyclohexyl}pyrido[2,3-d]pyrimidine-2,4(1H,3H)-dione]",0.398 nM
